From patent US7521071B2, “Formulation of oral compositions comprising arsenic trioxide and methods of use thereof” (Versitech Limited, priority 2002, dated 2009)
Marks after values point to notes of the source that are not given here.

Experiments:
[1] = test system: acute promyelocytic leukemia (APL); conditions: cited from earlier work
[2] = Arsenic in plasma and cellular fraction of blood at 48 hours; format: in vivo, human patients
Method: Venous blood samples were drawn (11 ml) prior to As2O3 administration on day-1 and subsequently at the following times after the beginning of the IV infusion: 1, 2, 3, 4, 6, 8, 24, 25, 26, 27, 28, 30, 32 and 48 hours. Five ml from each sample were collected in a non-gel lithium-heparin tube (for determination of plasma arsenic level) and 3 ml×2 in EDTA tubes (for determination of whole blood level). The plasma from the lithium-heparin tube was freshly separated and both the plasma and whole blood samples were stored at 4° C. and subsequently analyzed in batches.
Plasma and whole blood arsenic concentration were assayed after the samples were deproteinized with 3% (w/v) trichloroacetic acid and then mixed with matrix modifiers. The matrix modifiers contained magnesium nitrate (10 g/L), palladium chloride (6 g/L), and ammonium sulphite (20 g/L) in 0.5% Triton X 100. All chemicals were of analytical grade and were obtained from Sigma (St Louis, Mo.). The treated samples were assayed for total arsenic concentration in whole blood and plasma (which includes As2O3 per se and its metabolites) by graphite furnace atomic absorption spectrophotometry (Simma 6000, Perkin-Elmer, Norwalk, Conn.). Concentrations are therefore expressed as nmol/L of arsenic above basal values. The between-day coefficient of variation of this method was 7.5-9.6% for arsenic concentrations varying from 559 to 2169 nmol/L. The accuracy of this method was assessed by spiking known amounts of arsenic into patient samples; recovery being 97.3-101.3% for concentrations varying from 301 to 678 nmol/L.
The concentration of arsenic in the cellular fraction of blood (Cc) at 48 hours after the initial intravenous dose was calculated from the corresponding plasma (Cp) and whole blood (Cb) concentrations and the prevailing hematocrit (Hct) value as follows:
Nano mols of arsenic in the plasma from 1 liter of blood=Cp(1-Hct).
Accordingly, the mass of arsenic in the remaining cellular fraction in 1 liter of blood amounts to Cb-[Cp(1-Hct)].
Thus, the concentration (weight/volume) of arsenic per liter of the cellular fraction of the blood Cc={Cb-[Cp(1-Hct)]}/Hct.

[3] = Safety monitoring in Example 1 (ECG, complications); format: in vivo, human patients
Method: Demographic features as well as details pertaining to each patient's disease state (including laboratory findings) were recorded throughout the period of study. Their subsequent clinical progress and pertinent laboratory results were also logged. The University of Hong Kong Faculty of Medicine Ethics Committee approved the entire protocol.
The demographic features, basal arsenic concentrations, disease status, and treatment outcomes of each patient are shown in Table 2.

[4] = Oral arsenic bioavailability: plasma and whole blood arsenic AUC after IV (day 1) and oral (day 2) As2O3; format: in vivo, human patients
Method: As diets containing seafood contain arsenic, each patient was instructed to refrain from seafood, preferably for at least one week before arsenic administration. On day-1 at 10 A.M., 10 mg of a standard, commercially available IV As2O3 formulation (from Ophthalmic Laboratories, Sydney, Australia) diluted in 100 ml of Sodium Chloride 0.9% solution was infused IV over 60 minutes. At 10 A.M. on day-2 (i.e., 24 hours after the start of the IV infusion), each patient swallowed a 10 mg dose (10 ml) of our oral AS2O3 solution and none were instructed to fast before or during their treatment.
Venous blood samples were drawn (11 ml) prior to As2O3 administration on day-1 and subsequently at the following times after the beginning of the IV infusion: 1, 2, 3, 4, 6, 8, 24, 25, 26, 27, 28, 30, 32 and 48 hours. […] The plasma from the lithium-heparin tube was freshly separated and both the plasma and whole blood samples were stored at 4° C. and subsequently analyzed in batches.
Plasma and whole blood arsenic concentration were assayed after the samples were deproteinized with 3% (w/v) trichloroacetic acid and then mixed with matrix modifiers. […] Concentrations are therefore expressed as nmol/L of arsenic above basal values. […]

[5] = As2O3 powder; cited from earlier work
PML/RARA = experiment: Molecular monitoring of PML/RARA (PCR) in Example 2; format: in vivo, human patients
Method: Twelve consecutive unselected patients with relapsed APL were treated with oral-As2O3 (see Table 4). The relapse was confirmed morphologically (>30% blasts+abnormal promyelocytes in the marrow) and cytogenetically (presence of t(15;17), with none of the cases showing additional karyotyic aberrations) or molecularly (presence of PML/RARA). The treatment was given with informed consent, and the protocol was approved by the University of Hong Kong Faculty of Medicine Ethics Committee.
However, PML/RARA became negative in 11 cases 3-6 months post-remission, and remained negative until the latest bone marrow examination. PCR in patient no. 1 became positive shortly before R2.

Compound | efficacy in APL ([1]; oral, Lu et al. Blood 2002) | Cellular Conc (Cc), Mean ([2]; 48 hours, mean of 9 patients) | Plasma Conc (Cp), Mean ([2]; 48 hours, mean of 9 patients) | Difference, Mean ([2]; 48 hours, mean of 9 patients, p = 0.013 two tailed paired t-test) | 48-hour concentrations in the cellular fraction of blood higher than corresponding plasma concentrations ([2]; except in patient no 1) | 48-hour blood cell arsenic levels greater than in plasma ([2]; on average, p=0.013) | remissions induced in APL patients ([1]; literature (Shen 1997, Soignet 1998, Niu 1999)) | abnormal QTc prolongation on regularly performed ECGs ([3]; all nine patients receiving As2O3) | unexpected complications ([3]; nine patients) | inter-individual variation in plasma AUCs among the nine patients ([4]; plasma) | inter-individual variation in whole blood AUCs among the nine patients ([4]; whole blood) | solubility in cold water [5] | cases in which PML/RARA became negative (PML/RARA; 3-6 months post-remission, of 12 patients) | PML/RARA after As2O3-induced CR (PML/RARA; all patients)
S1[As]2S[As]3S[As]2S[As]13 [tetra-arsenic tetra-sulphide] | highly efficacious in APL |  |  |  |  |  |  |  |  |  |  |  |  | 
arsenic trioxide [As2O3] |  | 286 nM/L | 85 nM/L | 201* nM/L | 2 to 3 fold | 270% | over 90% | no instance of abnormal QTc prolongation | No patient suffered unexpected complications | ≤ 5 fold | ≤ 10 fold | sparingly and extremely slowly soluble | 11 cases | remained positive in all patients
